Measured values reported in ChEMBL document CHEMBL1201862, “PubChem BioAssay data set” (2004).
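In this assay, cells in 96-well plates receive the compound at five concentrations for 48 hours. Endpoints are linearly interpolated between the surrounding concentrations. At the GI50, growth is halved.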 Active and inactive are the calls of the source. No stated cut-off is given here; in the data, active = GI50 up to about 1.1 µM and inactive = higher. Non-standard residues stand in square brackets, D forms with d. Residues, ends and D or L forms follow the SMILES beside them. *: point of attachment. Cbz = O=C(OCc1ccccc1)*; Boc = CC(C)(C)OC(=O)*; Aib = CC(C)(N)C(=O)O; OBn = c1ccc(CO*)cc1; OtBu = CC(C)(C)O*; βAla = NCCC(=O)O

How the values were obtained:
Test in all cases: growth of human tumour cells (NCI), 48 h
A498 = system: A498
CAKI-1 = system: CAKI-1
EKVX = system: EKVX
HL-60 = system: HL-60
HOP-62 = system: HOP-62
HOP-92 = system: HOP-92
KM12 = system: KM12
M14 = system: M14
MDA-N = system: MDA-N
NCI/ADR-RES = system: NCI/ADR-RES
OVCAR-5 = system: OVCAR-5
OVCAR-8 = system: OVCAR-8
PC-3 = system: PC-3
RPMI-8226 = system: RPMI-8226
RXF 393 = system: RXF 393
SF-268 = system: SF-268
SK-OV-3 = system: SK-OV-3
SN12C = system: SN12C
SNB-75 = system: SNB-75
UACC-257 = system: UACC-257

Measured: GI50

CC(C)(C)OC(=O)CC(NC(=O)OC(C)(C)C)C(=O)NC(CCCCNC(=O)OCc1ccccc1)C(=O)NC(C)(C)C(=O)NCCC(=O)OCc1ccccc1 (centres undefined) (Boc-D(OtBu)K(Cbz)[Aib][βAla]-OBn; configuration not given here)
inactive: A498 86.3 µM | CAKI-1 > 100 µM | EKVX > 100 µM | HL-60 > 100 µM | HOP-62 > 100 µM | HOP-92 > 100 µM | KM12 > 100 µM | M14 > 100 µM | MDA-N > 100 µM | NCI/ADR-RES > 100 µM | OVCAR-5 > 100 µM | OVCAR-8 > 100 µM | PC-3 > 100 µM | RPMI-8226 > 100 µM | RXF 393 > 100 µM | SF-268 > 100 µM | SK-OV-3 > 100 µM | SN12C > 100 µM | SNB-75 > 100 µM

C[C@@H](C[C@H]1OC(C)(C)O[C@@H]1C(C)(C)O)[C@H]1CC=C2[C@]3(C)[C@H](O)C[C@H]4C(C)(C)[C@H](O)CC[C@]4(C)[C@H]3CC[C@]21C
inactive: A498 10.7 µM | CAKI-1 10.8 µM | EKVX 9.98 µM | HL-60 2.62 µM | HOP-62 12.8 µM | HOP-92 6.21 µM | KM12 6.21 µM | M14 9.29 µM | MDA-N 8.85 µM | NCI/ADR-RES 7.69 µM | OVCAR-5 8.69 µM | OVCAR-8 11.6 µM | PC-3 5.05 µM | RPMI-8226 4.03 µM | RXF 393 6.44 µM | SF-268 10.5 µM | SK-OV-3 12.5 µM | SN12C 3.32 µM | SNB-75 9.79 µM | UACC-257 8.81 µM

COCC#C[C@@]1(O)CCCCC1CC(OC)OC (some centres undefined)
inactive: A498 38.4 µM | CAKI-1 > 100 µM | EKVX > 100 µM | HL-60 55.1 µM | HOP-62 > 100 µM | HOP-92 94.6 µM | KM12 > 100 µM | M14 > 100 µM | MDA-N > 100 µM | NCI/ADR-RES > 100 µM | OVCAR-5 > 100 µM | OVCAR-8 51.6 µM | PC-3 > 100 µM | RPMI-8226 32.4 µM | RXF 393 > 100 µM | SF-268 > 100 µM | SK-OV-3 > 100 µM | SN12C > 100 µM | SNB-75 > 100 µM | UACC-257 > 100 µM

O=C(NNS(=O)(=O)c1ccccc1)c1cccnc1
inactive: A498 > 100 µM | CAKI-1 > 100 µM | EKVX > 100 µM | HL-60 > 100 µM | HOP-62 > 100 µM | HOP-92 > 100 µM | KM12 > 100 µM | M14 > 100 µM | MDA-N > 100 µM | NCI/ADR-RES > 100 µM | OVCAR-5 > 100 µM | OVCAR-8 > 100 µM | PC-3 > 100 µM | RPMI-8226 > 100 µM | RXF 393 > 100 µM | SF-268 > 100 µM | SK-OV-3 > 100 µM | SN12C > 100 µM | SNB-75 > 100 µM | UACC-257 > 100 µM

COC(=O)C1(Cc2ccc3c(c2)CCC3)Cc2cc3c(cc2C1=O)CCC3 (centres undefined)
inactive: A498 10.7 µM | CAKI-1 6.73 µM | EKVX 21.3 µM | HL-60 6.67 µM | HOP-62 > 46.5 µM | HOP-92 7.74 µM | KM12 18 µM | M14 20.8 µM | MDA-N 13 µM | NCI/ADR-RES 13.4 µM | OVCAR-5 > 46.5 µM | OVCAR-8 27.2 µM | PC-3 17.9 µM | RPMI-8226 8.02 µM | RXF 393 29.4 µM | SF-268 > 46.5 µM | SK-OV-3 > 46.5 µM | SN12C 26.9 µM | SNB-75 42.2 µM | UACC-257 16.4 µM

COc1ccc(C(=O)/C=C/c2cccnc2)cc1OC
inactive: A498 14.6 µM | CAKI-1 4.44 µM | EKVX 15.1 µM | HL-60 2.36 µM | HOP-62 14.9 µM | HOP-92 13 µM | M14 13.4 µM | MDA-N 12.4 µM | NCI/ADR-RES 14.5 µM | OVCAR-5 12.1 µM | OVCAR-8 5.81 µM | PC-3 14.7 µM | RPMI-8226 2.6 µM | RXF 393 5.81 µM | SF-268 7.55 µM | SK-OV-3 15.3 µM | SN12C 6.25 µM | SNB-75 11.8 µM | UACC-257 15.6 µM

CCOc1cc2c(cc1O)CC[C@@H]1[C@@H]2CC[C@]2(C)C(N)CC[C@@H]12 (some centres undefined)
inactive: A498 5.52 µM | CAKI-1 4.22 µM | EKVX 4.27 µM | HL-60 1.42 µM | HOP-62 5.94 µM | HOP-92 10.6 µM | KM12 1.58 µM | M14 4.05 µM | MDA-N 1.44 µM | NCI/ADR-RES 2.69 µM | OVCAR-5 5.86 µM | OVCAR-8 2.71 µM | PC-3 2.93 µM | RPMI-8226 3.01 µM | RXF 393 1.21 µM | SF-268 3.57 µM | SK-OV-3 3.19 µM | SN12C 4.09 µM | SNB-75 2.1 µM | UACC-257 3.44 µM

CC1=NN2C(=N)/C(=C/c3ccc(F)cc3)C(=O)N=C2S1
inactive: A498 > 100 µM | CAKI-1 > 100 µM | EKVX > 100 µM | HL-60 > 100 µM | HOP-62 > 100 µM | HOP-92 47.9 µM | KM12 > 100 µM | M14 > 100 µM | MDA-N > 100 µM | NCI/ADR-RES 13 µM | OVCAR-5 > 100 µM | OVCAR-8 > 100 µM | PC-3 > 100 µM | RPMI-8226 > 100 µM | RXF 393 > 100 µM | SF-268 > 100 µM | SK-OV-3 > 100 µM | SN12C > 100 µM | SNB-75 > 100 µM | UACC-257 > 100 µM

CC1=NN(c2cccc(Cl)c2)C2(C1)C(Cl)C(=O)N2c1nc2ccccc2s1 (centres undefined)
inactive: A498 35.9 µM | CAKI-1 33.1 µM | EKVX 45.5 µM | HL-60 23.3 µM | HOP-62 25.5 µM | HOP-92 25.3 µM | KM12 22.3 µM | M14 22.5 µM | MDA-N 29.2 µM | NCI/ADR-RES 25.4 µM | OVCAR-5 44.4 µM | OVCAR-8 32.5 µM | PC-3 22.6 µM | RPMI-8226 17.3 µM | RXF 393 27.9 µM | SF-268 33.2 µM | SK-OV-3 28 µM | SN12C 22.8 µM | SNB-75 21.6 µM | UACC-257 42.1 µM

Cc1ccc([N+](=O)[O-])c2c(NCCC[N+](C)(C)[O-])ccnc12
inactive: A498 32.2 µM | CAKI-1 53.6 µM | EKVX > 100 µM | HL-60 31.3 µM | HOP-62 29.3 µM | HOP-92 50.9 µM | KM12 40.1 µM | M14 40.3 µM | MDA-N > 100 µM | NCI/ADR-RES > 100 µM | OVCAR-5 28.2 µM | OVCAR-8 58.9 µM | PC-3 50.8 µM | RPMI-8226 31 µM | RXF 393 34.4 µM | SF-268 > 100 µM | SK-OV-3 52 µM | SN12C > 100 µM | SNB-75 55.7 µM | UACC-257 29.4 µM

O=[N+]([O-])c1cccnc1NCC1(CO)CC(Cc2ccccc2)C1 (centres undefined)
inactive: A498 > 100 µM | CAKI-1 > 100 µM | EKVX 77.6 µM | HL-60 > 100 µM | HOP-62 > 100 µM | HOP-92 11.1 µM | KM12 > 100 µM | MDA-N > 100 µM | NCI/ADR-RES > 100 µM | OVCAR-5 > 100 µM | OVCAR-8 > 100 µM | PC-3 > 100 µM | RPMI-8226 99.8 µM | RXF 393 > 100 µM | SF-268 > 100 µM | SK-OV-3 > 100 µM | SN12C > 100 µM | SNB-75 > 100 µM | UACC-257 > 100 µM

Nc1nc(Cl)c(C=O)c(NCC2(CO)CC(CCc3ccccc3)C2)n1 (centres undefined)
inactive: A498 11.7 µM | CAKI-1 1.55 µM | EKVX 3.94 µM | HL-60 1.67 µM | HOP-62 14.5 µM | HOP-92 1.77 µM | KM12 13.7 µM | M14 2.54 µM | MDA-N 6.59 µM | NCI/ADR-RES 16.2 µM | OVCAR-5 15.8 µM | OVCAR-8 2.07 µM | PC-3 6.43 µM | RPMI-8226 12.4 µM | RXF 393 14.2 µM | SF-268 15.4 µM | SK-OV-3 11.3 µM | SN12C 6.15 µM | SNB-75 18.7 µM | UACC-257 3.08 µM

N#CCCCC[N+]12CN3CN(CN(C3)C1)C2
inactive: A498 > 100 µM | CAKI-1 > 100 µM | EKVX > 100 µM | HL-60 > 100 µM | HOP-62 > 100 µM | HOP-92 > 100 µM | KM12 > 100 µM | M14 > 100 µM | MDA-N > 100 µM | NCI/ADR-RES > 100 µM | OVCAR-5 > 100 µM | OVCAR-8 > 100 µM | PC-3 > 100 µM | RPMI-8226 40.8 µM | RXF 393 > 100 µM | SF-268 > 100 µM | SK-OV-3 > 100 µM | SN12C > 100 µM | SNB-75 > 100 µM | UACC-257 > 100 µM

C[C@]12CC/C(=N\O)C=C1CC[C@@H]1[C@@H]2CC[C@]2(C)C(=N/O)/C(=C/c3ccc([N+](=O)[O-])cc3)C[C@@H]12
inactive: A498 13 µM | CAKI-1 2.29 µM | HL-60 1.85 µM | HOP-62 18.4 µM | HOP-92 3.3 µM | KM12 4.04 µM | M14 4.05 µM | MDA-N 4.03 µM | NCI/ADR-RES 5.13 µM | PC-3 4.8 µM | RPMI-8226 1.87 µM | RXF 393 59.6 µM | SF-268 3.16 µM | SK-OV-3 15.5 µM | SN12C 4.27 µM | SNB-75 6 µM | UACC-257 4.66 µM
